No end group written: not given here.
B1: Saposin D: sphingolipid-binding glycoprotein derived from Prosaposin, recombinant (protein, UniProt P07602 405-486, looked up)
Saposin-D: DGGFCEVCKKLVGYLDRNLEKNSTKQEILAALEKGCSFLPDPYQKQCDQFVAEYEPVLIEILVEVMDPSFVCLKIGACPSAH
modifications: Saposin-D
B2: Saposin A: sphingolipid-binding glycoprotein derived from Prosaposin, recombinant (protein, UniProt P07602 60-142, looked up)
Saposin-A: SLPCDICKDVVTAAGDMLKDNATEEEILVYLEKTCDWLPKPNMSASCKEIVDSYLPVILDIIKGEMSRPGEVCSALNLCESLQ
modifications: Saposin-A
B3: Saposin C: sphingolipid-binding glycoprotein derived from Prosaposin, recombinant (protein, UniProt P07602 311-390, looked up)
Saposin-C: SDVYCEVCEFLVKEVTKLIDNNKTEKEILDAFDKMCSKLPKSLSEECQEVVDTYGSSILSILLEEVSPELVCSMLHLCSG
modifications: Saposin-C

What follows are molecules tested on KS cell lines (assay: Growth inhibition of KS cell lines by recombinant proteins). Conditions: recombinant or naturally occurring protein.
Assay type: cell-based
Description: (§1) Typically, in an anti-proliferation assay, the suppression of growth in the presence of the compound to be tested is measured. For example, the above cells are incubated with the polypeptides of this invention for a suitable time and the decrease in the growth rate relative to a negative control, i.e., cells of the same cell line which have been incubated in media alone, is measured. Growth of the cell culture can be measured by any method acceptable to one of skill, including but not limited to, 3H-thymidine uptake, cell counting and tetrazolium dye uptake.
(§2) By SDS-PAGE, the bacterial product was smaller than the eukaryotic protein. Because prokaryotically expressed proteins are not glycosylated, the difference in molecular weights probably represents the presence of carbohydrate in the eukaryotic protein. Recombinant proteins were then tested in KS, endothelial and control cell lines. Activity was found only in KS cell lines and endothelial cells.
In the case of B1, the “growth inhibition / activity against KS cell lines” value is reported as “no activity”.
In the case of B2, the “growth inhibition / activity against KS cell lines” value is reported as “no activity”.

Same assay, conditions: up to the highest concentration tested (50 μg/mL)
B3 was tested, and the “activity against KS cell lines” value was “no activity”.

Each molecule was assayed on KS Y-1 cells (assay: KS Y-1 cell proliferation assay (MTT)). Conditions: KS Y-1, first value column; concentration not given.
Assay type: cell-based
Description: (§3) To determine if Saposin B polypeptides had anti-angiogenic activity, a series of overlapping polypeptides were synthesized and tested in the KS Y-1 cell proliferation assay. The overlapping polypeptides are SEQ ID NOs:13 though 43. Cell Proliferation assays in either KS cells or fibroblast. Cells were plated in 48 well plates at equal numbers in appropriate culture medium. Cells were treated with the test compounds at various concentrations on day one, and on day 3. MTT was done on day 5. KS cells were used to represent the activated endothelial cells, while fibroblast cells represent the control cells. The results are remarkable for the lack of toxicity to the fibroblast relative to the activated endothelial cells/KS cells.
In the case of DVCQDCIQM [SEQ ID NO:24], the “Cell Proliferation Activity (% of control), KS Y-1” value is reported as 68 % of control.
With VCQDCIQMV [SEQ ID NO:29] the “Cell Proliferation Activity (% of control), KS Y-1” value was 65 % of control.
In the case of CQDCIQMV [SEQ ID NO:30], the “Cell Proliferation Activity (% of control), KS Y-1” value is reported as 77 % of control.
With DVCQDCIQ [SEQ ID NO:25] the “Cell Proliferation Activity (% of control), KS Y-1” value was 72 % of control.
In the case of DVCQDCI [SEQ ID NO:26], the “Cell Proliferation Activity (% of control), KS Y-1” value is reported as 72 % of control.
For GDVSQDSIQMV [SEQ ID NO:20], the “Cell Proliferation Activity (% of control), KS Y-1” value was 93 % of control.
In the case of QDCIQMV [SEQ ID NO:31, QDCIQMV], the “Cell Proliferation Activity (% of control), KS Y-1” value is reported as 74 % of control.
In the case of DCIQMV [SEQ ID NO:23], the “Cell Proliferation Activity (% of control), KS Y-1” value is reported as 68 % of control.
GDVCQ [SEQ ID NO:22] was tested, and the “Cell Proliferation Activity (% of control), KS Y-1” value was 59 % of control.
DVCQDC [SEQ ID NO:27] was tested, and the “Cell Proliferation Activity (% of control), KS Y-1” value was 60 % of control.
DVCQDCIQMV [SEQ ID NO:21] was tested, and the “Cell Proliferation Activity (% of control), KS Y-1” value was 29 % of control.

Same assay, conditions: KS Y-1; concentration not given
DVCQDCIQM [SEQ ID NO:24] was tested, and the “Cell Proliferation Activity (% of control), KS Y-1” value was 46 % of control.
With VCQDCIQMV [SEQ ID NO:29] the “Cell Proliferation Activity (% of control), KS Y-1” value was 33 % of control.
In the case of CQDCIQMV [SEQ ID NO:30], the “Cell Proliferation Activity (% of control), KS Y-1” value is reported as 35 % of control.
For DVCQDCIQ [SEQ ID NO:25], the “Cell Proliferation Activity (% of control), KS Y-1” value was 39 % of control.
In the case of DVCQDCI [SEQ ID NO:26], the “Cell Proliferation Activity (% of control), KS Y-1” value is reported as 40 % of control.
In the case of GDVSQDSIQMV [SEQ ID NO:20], the “Cell Proliferation Activity (% of control), KS Y-1” value is reported as 84 % of control.
With DCIQMV [SEQ ID NO:23] the “Cell Proliferation Activity (% of control), KS Y-1” value was 51 % of control.
For GDVCQ [SEQ ID NO:22], the “Cell Proliferation Activity (% of control), KS Y-1” value was 28 % of control.
In the case of DVCQDC [SEQ ID NO:27], the “Cell Proliferation Activity (% of control), KS Y-1” value is reported as 22 % of control.

The molecules below were run on endothelial cells (HUVEC) (assay: Growth inhibition of endothelial cells). Conditions: not given.
Assay type: cell-based
Description: as §1, §2
For DVCQDCIQMV [SEQ ID NO:21], the “growth inhibition / activity against endothelial cells” value was “Only endothelial cells show dose dependent growth inhibition”.
In the case of B1, the “growth inhibition / activity against endothelial cells” value is reported as “no activity”.
For B2, the “growth inhibition / activity against endothelial cells” value was “no activity”.

Same assay, conditions: up to the highest concentration tested (50 μg/mL)
In the case of B3, the “activity against endothelial cells” value is reported as “no activity”.

What follows are molecules tested on fibroblast cells (T1) (assay: Fibroblast proliferation assay (MTT), control cells). Conditions: 1 μg/mL.
Assay type: cell-based
Description: as §3
GDVCQ [SEQ ID NO:22] was tested, and the “Fibroblast Proliferation, % of Control” value was 95.7 % of Control.
DVCQDCIQMV [SEQ ID NO:21] was tested, and the “Fibroblast Proliferation, % of Control” value was 100.0 % of Control.

Same assay, conditions: 10 μg/mL
For GDVSQDSIQMV [SEQ ID NO:20], the “Fibroblast Proliferation, % of Control” value was 95.7 % of Control.
GDVCQ [SEQ ID NO:22] was tested, and the “Fibroblast Proliferation, % of Control” value was 95.7 % of Control.

Same assay, conditions: 50 μg/mL
With GDVSQDSIQMV [SEQ ID NO:20] the “Fibroblast Proliferation, % of Control” value was 95.7 % of Control.
GDVCQ [SEQ ID NO:22] was tested, and the “Fibroblast Proliferation, % of Control” value was 87.0 % of Control.
DVCQDCIQMV [SEQ ID NO:21] was tested, and the “Fibroblast Proliferation, % of Control” value was 87.0 % of Control.

Same assay, conditions: T1, first value column; concentration not printed
DVCQDCIQM [SEQ ID NO:24] was tested, and the “Cell Proliferation Activity (% of control), T1” value was 96 % of control.
VCQDCIQMV [SEQ ID NO:29] was tested, and the “Cell Proliferation Activity (% of control), T1” value was 95 % of control.
CQDCIQMV [SEQ ID NO:30] was tested, and the “Cell Proliferation Activity (% of control), T1” value was 92 % of control.
In the case of DVCQDCIQ [SEQ ID NO:25], the “Cell Proliferation Activity (% of control), T1” value is reported as 98 % of control.
For DVCQDCI [SEQ ID NO:26], the “Cell Proliferation Activity (% of control), T1” value was 96 % of control.
For QDCIQMV [SEQ ID NO:31, QDCIQMV], the “Cell Proliferation Activity (% of control), T1” value was 87 % of control.
For DVCQDC [SEQ ID NO:27], the “Cell Proliferation Activity (% of control), T1” value was 88 % of control.

Same assay, conditions: T1, second value column; concentration not printed
With DVCQDCIQM [SEQ ID NO:24] the “Cell Proliferation Activity (% of control), T1” value was 84 % of control.
VCQDCIQMV [SEQ ID NO:29] was tested, and the “Cell Proliferation Activity (% of control), T1” value was 86 % of control.
For CQDCIQMV [SEQ ID NO:30], the “Cell Proliferation Activity (% of control), T1” value was 84 % of control.
In the case of DVCQDCIQ [SEQ ID NO:25], the “Cell Proliferation Activity (% of control), T1” value is reported as 89 % of control.
With DVCQDCI [SEQ ID NO:26] the “Cell Proliferation Activity (% of control), T1” value was 81 % of control.
In the case of QDCIQMV [SEQ ID NO:31, QDCIQMV], the “Cell Proliferation Activity (% of control), T1” value is reported as 80 % of control.
For DVCQDC [SEQ ID NO:27], the “Cell Proliferation Activity (% of control), T1” value was 75 % of control.

Source: patent US7341730B1, “Inhibitors of angiogenesis and tumor growth” (University of Southern California, priority 1998, dated 2008)
